Test results taken from patent US5672715A, “Herbicidal substituted 3-aryl-pyrazoles” (Monsanto Company, priority 1995, dated 1997).

Legend:
Format in all cases: in vivo
[1] = tested on: Common Chickweed; experiment: pre-emergence herbicide test; conditions: pre-emergence, 0.25 lb/A; read-out: % plant inhibition
In short: (§1)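 Herbicidal effect was assessed as percent inhibition about 14 days after sowing. A known amount of compound was added to the covering topsoil, and the pans were subirrigated in a greenhouse.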

[2] = tested on: Corn; experiment: pre-emergence herbicide test; conditions: Zea mays, pre-emergence, 0.25 lb/A; read-out: % plant inhibition
In short: as §1

[3] = tested on: Green Foxtail; experiment: pre-emergence herbicide test; conditions: Setaria viridis, pre-emergence; 0.25 lb/A; read-out: % plant inhibition
In short: as §1

[4] = tested on: Giant Foxtail; experiment: pre-emergence herbicide test; conditions: Setaria faberi, pre-emergence, 0.25 lb/A; read-out: % plant inhibition
In short: as §1

[5] = tested on: Barnyardgrass; experiment: pre-emergence herbicide test; conditions: Echinochloa crus-galli, pre-emergence, 0.25 lb/A; read-out: % plant inhibition
In short: as §1

[6] = tested on: Bedstraw Catchweed; experiment: pre-emergence herbicide test; conditions: Galium aparine, pre-emergence, 0.25 lb/A; read-out: % plant inhibition
In short: as §1

[7] = tested on: Cocklebur; experiment: pre-emergence herbicide test; conditions: Xanthium strumarium, pre-emergence, 0.25 lb/A; read-out: % plant inhibition
In short: as §1

[8] = tested on: Rape; experiment: pre-emergence herbicide test; conditions: pre-emergence, 0.25 lb/A; read-out: % plant inhibition
In short: as §1

[9] = tested on: Wheat; experiment: pre-emergence herbicide test; conditions: Triticum aestivum, pre-emergence, 0.25 lb/A; read-out: % plant inhibition
In short: as §1

[10] = tested on: Morning Glory; experiment: pre-emergence herbicide test; conditions: Ipomoea, pre-emergence, 0.25 lb/A; read-out: % plant inhibition
In short: as §1

[11] = tested on: Downy Brome; experiment: pre-emergence herbicide test; conditions: Bromus tectorum, pre-emergence, 0.25 lb/A; read-out: % plant inhibition
In short: as §1

[12] = tested on: Velvetleaf; experiment: pre-emergence herbicide test; conditions: Abutilon theophrasti, pre-emergence, 0.25 lb/A; read-out: % plant inhibition
In short: as §1

[13] = tested on: Wild Oats; experiment: pre-emergence herbicide test; conditions: Avena fatua, pre-emergence, 0.25 lb/A; read-out: % plant inhibition
In short: as §1

[14] = tested on: Soybean; experiment: pre-emergence herbicide test; conditions: Glycine max, pre-emergence, 0.25 lb/A; read-out: % plant inhibition
In short: as §1

[15] = tested on: Birdseye Speedwell; experiment: pre-emergence herbicide test; conditions: pre-emergence, 0.25 lb/A; read-out: % plant inhibition
In short: as §1

[16] = tested on: Blackgrass; experiment: pre-emergence herbicide test; conditions: Alopecurus myosuroides, pre-emergence, 0.25 lb/A; read-out: % plant inhibition
In short: as §1

[17] = tested on: Seedling Johnsongrass; experiment: pre-emergence herbicide test; conditions: Sorghum halepense, pre-emergence, 0.25 lb/A; read-out: % plant inhibition
In short: as §1

[18] = tested on: Common Chickweed; experiment: post-emergence herbicide test; conditions: post-emergence, 0.25 lb/A; read-out: % plant inhibition
In short: (§2)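 Plants grown in greenhouse soil pans for two to three weeks were sprayed with compound in about 0.4% v/v emulsifier at 170.3 kPa and 1870 L/Ha, at the stated application rates. Activity was scored as percent inhibition of each species.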

[19] = tested on: Corn; experiment: post-emergence herbicide test; conditions: Zea mays, post-emergence, 0.25 lb/A; read-out: % plant inhibition
In short: as §2

[20] = tested on: Green Foxtail; experiment: post-emergence herbicide test; conditions: Setaria viridis, post-emergence, 0.25 lb/A; read-out: % plant inhibition
In short: as §2

[21] = tested on: Giant Foxtail; experiment: post-emergence herbicide test; conditions: Setaria faberi, post-emergence, 0.25 lb/A; read-out: % plant inhibition
In short: as §2

[22] = tested on: Barnyardgrass; experiment: post-emergence herbicide test; conditions: Echinochloa crus-galli, post-emergence, 0.25 lb/A; read-out: % plant inhibition
In short: as §2

[23] = tested on: Bedstraw Catchweed; experiment: post-emergence herbicide test; conditions: Galium aparine, post-emergence, 0.25 lb/A; read-out: % plant inhibition
In short: as §2

[24] = tested on: Cocklebur; experiment: post-emergence herbicide test; conditions: Xanthium strumarium, post-emergence, 0.25 lb/A; read-out: % plant inhibition
In short: as §2

[25] = tested on: Rape; experiment: post-emergence herbicide test; conditions: post-emergence, 0.25 lb/A; read-out: % plant inhibition
In short: as §2

[26] = tested on: Wheat; experiment: post-emergence herbicide test; conditions: Triticum aestivum, post-emergence, 0.25 lb/A; read-out: % plant inhibition
In short: as §2

[27] = tested on: Morning Glory; experiment: post-emergence herbicide test; conditions: Ipomoea, post-emergence, 0.25 lb/A; read-out: % plant inhibition
In short: as §2

[28] = tested on: Downy Brome; experiment: post-emergence herbicide test; conditions: Bromus tectorum, post-emergence, 0.25 lb/A; read-out: % plant inhibition
In short: as §2

[29] = tested on: Velvetleaf; experiment: post-emergence herbicide test; conditions: Abutilon theophrasti, post-emergence, 0.25 lb/A; read-out: % plant inhibition
In short: as §2

[30] = tested on: Wild Oats; experiment: post-emergence herbicide test; conditions: Avena fatua, post-emergence, 0.25 lb/A; read-out: % plant inhibition
In short: as §2

[31] = tested on: Soybean; experiment: post-emergence herbicide test; conditions: Glycine max, post-emergence, 0.25 lb/A; read-out: % plant inhibition
In short: as §2

[32] = tested on: Birdseye Speedwell; experiment: post-emergence herbicide test; conditions: post-emergence, 0.25 lb/A; read-out: % plant inhibition
In short: as §2

[33] = tested on: Blackgrass; experiment: post-emergence herbicide test; conditions: Alopecurus myosuroides, post-emergence, 0.25 lb/A; read-out: % plant inhibition
In short: as §2

[34] = tested on: Seedling Johnsongrass; experiment: post-emergence herbicide test; conditions: Sorghum halepense, post-emergence, 0.25 lb/A; read-out: % plant inhibition
In short: as §2

Row | Compound | inhibition at 280.212 g/ha [1] | inhibition at 280.212 g/ha [2] | inhibition at 280.212 g/ha [3] | inhibition at 280.212 g/ha [4] | inhibition at 280.212 g/ha [5] | inhibition at 280.212 g/ha [6] | inhibition at 280.212 g/ha [7] | inhibition at 280.212 g/ha [8] | inhibition at 280.212 g/ha [9] | inhibition at 280.212 g/ha [10] | inhibition at 280.212 g/ha [11] | inhibition at 280.212 g/ha [12] | inhibition at 280.212 g/ha [13] | inhibition at 280.212 g/ha [14] | inhibition at 280.212 g/ha [15] | inhibition at 280.212 g/ha [16] | inhibition at 280.212 g/ha [17] | inhibition at 280.212 g/ha [18] | inhibition at 280.212 g/ha [19] | inhibition at 280.212 g/ha [20] | further results
1 | COCC(C)OC(=O)c1cc(-c2nn(C)c(C(F)(F)F)c2C)c(F)cc1Cl (centres unmarked) [Compound 52] | 95% | 75% | 100% | 100% | 100% | 90% | 65% | 60% | 0% | 70% | 100% | 100% | 85% | 5% | 95% | 100% | 100% | 100% | 15% | 98% | inhibition at 280.212 g/ha [21]: 100%; inhibition at 280.212 g/ha [22]: 99%; inhibition at 280.212 g/ha [23]: 100%; inhibition at 280.212 g/ha [24]: 100%; inhibition at 280.212 g/ha [25]: 100%; inhibition at 280.212 g/ha [26]: 25%; inhibition at 280.212 g/ha [27]: 99%; inhibition at 280.212 g/ha [28]: 100%; inhibition at 280.212 g/ha [29]: 100%; inhibition at 280.212 g/ha [30]: 95%; inhibition at 280.212 g/ha [31]: 95%; inhibition at 280.212 g/ha [32]: 100%; inhibition at 280.212 g/ha [33]: 95%; inhibition at 280.212 g/ha [34]: 99%
2 | CCOC(=O)COC(=O)c1cc(-c2nn(C)c(C(F)(F)F)c2C)c(F)cc1Cl [Compound 17] | 100% | 0% | 35% | 40% | 0% | 100% | 10% | 90% | 0% | 50% | 30% | 50% | 15% | 5% | 100% | 20% | 5% | 90% | 10% | 20% | inhibition at 280.212 g/ha [21]: 45%; inhibition at 280.212 g/ha [22]: 70%; inhibition at 280.212 g/ha [23]: 95%; inhibition at 280.212 g/ha [24]: 95%; inhibition at 280.212 g/ha [25]: 20%; inhibition at 280.212 g/ha [26]: 15%; inhibition at 280.212 g/ha [27]: 90%; inhibition at 280.212 g/ha [28]: 30%; inhibition at 280.212 g/ha [29]: 99%; inhibition at 280.212 g/ha [30]: 20%; inhibition at 280.212 g/ha [31]: 30%; inhibition at 280.212 g/ha [32]: 98%; inhibition at 280.212 g/ha [33]: 15%; inhibition at 280.212 g/ha [34]: 65%
